Experimental data published in patent EP4793292A1, “POLYPEPTIDE DERIVATIVE, PHARMACEUTICAL COMPOSITION THEREOF AND USE THEREOF” (Biocells (Beijing) Biotech Co., Ltd., priority 2023, dated 2025).
Starred links: 1 amine or outer side, 2 acyl side, 3 side chain; linkers in the order of their positions; H or OH if unused. Positions of bridges follow the written chain, without caps; N, C: chain ends. Non-standard residues stand in square brackets, D forms with d. Residues, ends and D or L forms follow the SMILES beside them. Groups on a side chain read outwards from the residue. No end group written: not given here. *: point of attachment. C18 diacid = O=C(O)CCCCCCCCCCCCCCCCC(=O)*; γGlu = O=C(O)[C@H](CCC(=O)[*:2])N[*:1]; Palmitoyl = CCCCCCCCCCCCCCCC(=O)*; AEEA = NCCOCCOCC(=O)O

System: SH-SY5Y cells
Assay: Axonal growth of RA-differentiated SH-SY5Y cells on proteoglycan (ACAN) coating
Format: cell-based, human
Settings: PW polypeptide 2.5 µM, 72 h, proteoglycan (ACAN)-coated plate, FIG. 1
Description: Therefore, RA-induced differentiated SH-SY5Y can be used to simulate neuronal axonal growth in vitro and to test the effects of PW polypeptides on axonal growth.
Preparation of culture medium for SH-SY5Y: 1) DMEM/F12 + 10% FBS + 1 × penicillin-streptomycin + 1 mM sodium pyruvate; 2) DMEM/F12 + 1% FBS + 1 × penicillin-streptomycin + 1 mM sodium pyruvate. Preparation of 50 mM retinoic acid stock solution: 15.02 mg of retinoic acid was weighed and dissolved in 1 mL of dimethyl sulfoxide (DMSO), aliquoted, and frozen at -80°C. Proteoglycan (ACAN/CSPG1) is a type of chondroitin sulfate proteoglycan (CSPG). Preparation of 1 mg/mL proteoglycan stock solution: 1 mg of ACAN solid was dissolved in 1 mL of distilled water, aliquoted, and frozen at -80°C. Preparation of PW polypeptide solution for cells (1 mM): the corresponding mass of polypeptide powder was weighed, dissolved in PBS and filtered through a 0.2 µm filter membrane, aliquoted, and frozen at -20°C.
The 1 mg/mL proteoglycan was diluted to 250 µg/mL with distilled water to coat a 24-well cell culture plate: each well was coated with 3 droplets of ACAN, 2 µL per droplet. Using the culture medium containing 10% FBS, SH-SY5Y cells were seeded in the proteoglycan-coated 24-well plate (20,000 cells/well) and incubated (37°C, 5% CO2) for 20 h. The medium was replaced with a culture medium containing 1% FBS, and PW polypeptide (2.5 µM) or an equal volume of PBS solution was added. After incubation for 72 h, the cells were fixed with 4% paraformaldehyde (room temperature, 30 min), and cell morphology was photographed and recorded using a 10× optical microscope. 20-30 cells were randomly selected under each field of view, and axonal length was measured using Image J-SNT.
Data analysis: All measured axonal lengths within each proteoglycan-coated range were averaged to serve as one data point. One-way analysis of variance and Tukey's test were used to compare the differences between groups. P<0.05 was considered as a significant difference.

Compound	effect of promoting axonal growth compared with the scrambled polypeptide (Scr, negative control)	promoting effect on axonal growth compared with PW6
CC[C@H](C)[C@H](NC(=O)[C@H](CO)NC(=O)[C@H](CCC(=O)O)NC(=O)[C@H](Cc1ccc(O)cc1)NC(=O)[C@@H]1CCC(=O)NCCCC[C@H](NC(=O)[C@H](CC(C)C)NC(=O)[C@H](CO)NC(=O)[C@H](CC(=O)O)NC(=O)[C@H](CC(N)=O)NC(=O)[C@H](C)NC(=O)[C@H](CCCCN)NC(=O)[C@H](CC(C)C)NC(=O)[C@H](CCCNC(=N)N)NC(=O)[C@H](CCC(=O)O)NC(=O)[C@@H](NC(=O)[C@H](Cc2c[nH]cn2)NC(=O)[C@H](CCC(=O)O)NC(=O)[C@H](C)NC(=O)[C@H](CCSC)NC(=O)[C@H](CC(=O)O)NC(=O)[C@H](CS)NC(=O)[C@H](CCCNC(=N)N)NC(=O)[C@H](CCCNC(=N)N)NC(=O)[C@H](CCCNC(=N)N)NC(=O)[C@H](CCC(N)=O)NC(=O)[C@H](CCCNC(=N)N)NC(=O)[C@H](CCCNC(=N)N)NC(=O)[C@H](CCCCN)NC(=O)[C@H](CCCCN)NC(=O)[C@H](CCCNC(=N)N)NC(=O)CN)[C@@H](C)O)C(=O)N[C@@H](CC(C)C)C(=O)N[C@@H](CO)C(=O)N[C@@H](CCC(N)=O)C(=O)N1)C(N)=O [PW-170] (H-GRKKRRQRRRCDMAEHTERLKANDSLKLSQEYESI-NH2; lactam 27-31)	significant effect of promoting axonal growth	no significant difference
NH2-GrKKRrQrRR-C-DMAEHTEALKANDSLcyclo(KLSQEYE)SI-NH2 [PW-239]	significant effect of promoting axonal growth	not significantly enhanced
PW-92: polypeptide derivative, SEQ ID NO: 10 (G[dR]KKR[dR]QRRRCDMAEHTERLK([AEEA-AEEA-γGlu-C18 diacid])ANDSLKLSQEYESI-NH2; not fully specified (residue 8))	significant effect of promoting axonal growth	no significant difference
PW-95: polypeptide derivative, SEQ ID NO: 12 (GRKKRRQRRRCDMAEHTERLKAKDSLKLSQEYESI; not fully specified; MOD_RES 35: note = I at position 35 is amidated; LIPID 23: note = Lys side-chain linked to 2-(2-(2-amino ethoxy) ethoxy) acetic acid-2-(2-(2-amino ethoxy) ethoxy)acetic acid-gamma Glutamic acid-Octadecanedioic acid; SITE 6: note = D-arginine; SITE 2: note = D-arginine; SITE 8: n)		not significantly enhanced
PW-96: polypeptide derivative, SEQ ID NO: 13 (GRKKRRQRRRDMAEHTERLKAKDSLKLSQEYESI; not fully specified; MOD_RES 34: note = I at position 34 is amidated; LIPID 22: note = Lys side-chain linked to 2-(2-(2-amino ethoxy) ethoxy) acetic acid-2-(2-(2-amino ethoxy) ethoxy)acetic acid-gamma Glutamic acid-Octadecanedioic acid; SITE 6: note = D-arginine; SITE 2: note = D-arginine; SITE 8: n)		not significantly enhanced
PW-252: polypeptide derivative, SEQ ID NO: 47 (G[dR]KKR[dR]Q[dR]RRCDMAEHTERLK([AEEA-AEEA-γGlu-Palmitoyl])ANDSLKLSQEYESI-NH2; N-terminus assumed; SMILES CCCCCCCCCCCCCCCC(=O)N[C@@H](CCC(=O)NCCOCCOCC(=O)NCCOCCOCC(=O)NCCCC[C@H](NC(=O)[C@H](CC(C)C)NC(=O)[C@H](CCCNC(=N)N)NC(=O)[C@H](CCC(=O)O)NC(=O)[C@@H](NC(=O)[C@H](Cc1c[nH]cn1)NC(=O)[C@H](CCC(=O)O)NC(=O)[C@H](C)NC(=O)[C@H](CCSC)NC(=O)[C@H](CC(=O)O)NC(=O)[C@H](CS)NC(=O)[C@H](CCCNC(=N)N)NC(=O)[C@H](CCCNC(=N)N)NC(=O)[C@@H](CCCNC(=N)N)NC(=O)[C@H](CCC(N)=O)NC(=O)[C@@H](CCCNC(=N)N)NC(=O)[C@H](CCCNC(=N)N)NC(=O)[C@H](CCCCN)NC(=O)[C@H](CCCCN)NC(=O)[C@@H](CCCNC(=N)N)NC(=O)CN)[C@@H](C)O)C(=O)N[C@@H](C)C(=O)N[C@@H](CC(N)=O)C(=O)N[C@@H](CC(=O)O)C(=O)N[C@@H](CO)C(=O)N[C@@H](CC(C)C)C(=O)N[C@@H](CCCCN)C(=O)N[C@@H](CC(C)C)C(=O)N[C@@H](CO)C(=O)N[C@@H](CCC(N)=O)C(=O)N[C@@H](CCC(=O)O)C(=O)N[C@@H](Cc1ccc(O)cc1)C(=O)N[C@@H](CCC(=O)O)C(=O)N[C@@H](CO)C(=O)N[C@H](C(N)=O)[C@@H](C)CC)C(=O)O)	significant effect of promoting axonal growth	no significant difference
PW-253: polypeptide derivative, SEQ ID NO: 48 (G[dR]KKR[dR]Q[dR]RRDMAEHTERLK([AEEA-AEEA-γGlu-Palmitoyl])ANDSLKLSQEYESI-NH2; N-terminus assumed; SMILES CCCCCCCCCCCCCCCC(=O)N[C@@H](CCC(=O)NCCOCCOCC(=O)NCCOCCOCC(=O)NCCCC[C@H](NC(=O)[C@H](CC(C)C)NC(=O)[C@H](CCCNC(=N)N)NC(=O)[C@H](CCC(=O)O)NC(=O)[C@@H](NC(=O)[C@H](Cc1c[nH]cn1)NC(=O)[C@H](CCC(=O)O)NC(=O)[C@H](C)NC(=O)[C@H](CCSC)NC(=O)[C@H](CC(=O)O)NC(=O)[C@H](CCCNC(=N)N)NC(=O)[C@H](CCCNC(=N)N)NC(=O)[C@@H](CCCNC(=N)N)NC(=O)[C@H](CCC(N)=O)NC(=O)[C@@H](CCCNC(=N)N)NC(=O)[C@H](CCCNC(=N)N)NC(=O)[C@H](CCCCN)NC(=O)[C@H](CCCCN)NC(=O)[C@@H](CCCNC(=N)N)NC(=O)CN)[C@@H](C)O)C(=O)N[C@@H](C)C(=O)N[C@@H](CC(N)=O)C(=O)N[C@@H](CC(=O)O)C(=O)N[C@@H](CO)C(=O)N[C@@H](CC(C)C)C(=O)N[C@@H](CCCCN)C(=O)N[C@@H](CC(C)C)C(=O)N[C@@H](CO)C(=O)N[C@@H](CCC(N)=O)C(=O)N[C@@H](CCC(=O)O)C(=O)N[C@@H](Cc1ccc(O)cc1)C(=O)N[C@@H](CCC(=O)O)C(=O)N[C@@H](CO)C(=O)N[C@H](C(N)=O)[C@@H](C)CC)C(=O)O)	significant effect of promoting axonal growth	no significant difference
PW-259: polypeptide derivative, SEQ ID NO: 50 (G[dR]KKR[dR]Q[dR]RRDMAEHTERLK([AEEA-γGlu-Palmitoyl])ANDSLKLSQEYESI-NH2; N-terminus assumed; SMILES CCCCCCCCCCCCCCCC(=O)N[C@@H](CCC(=O)NCCOCCOCC(=O)NCCCC[C@H](NC(=O)[C@H](CC(C)C)NC(=O)[C@H](CCCNC(=N)N)NC(=O)[C@H](CCC(=O)O)NC(=O)[C@@H](NC(=O)[C@H](Cc1c[nH]cn1)NC(=O)[C@H](CCC(=O)O)NC(=O)[C@H](C)NC(=O)[C@H](CCSC)NC(=O)[C@H](CC(=O)O)NC(=O)[C@H](CCCNC(=N)N)NC(=O)[C@H](CCCNC(=N)N)NC(=O)[C@@H](CCCNC(=N)N)NC(=O)[C@H](CCC(N)=O)NC(=O)[C@@H](CCCNC(=N)N)NC(=O)[C@H](CCCNC(=N)N)NC(=O)[C@H](CCCCN)NC(=O)[C@H](CCCCN)NC(=O)[C@@H](CCCNC(=N)N)NC(=O)CN)[C@@H](C)O)C(=O)N[C@@H](C)C(=O)N[C@@H](CC(N)=O)C(=O)N[C@@H](CC(=O)O)C(=O)N[C@@H](CO)C(=O)N[C@@H](CC(C)C)C(=O)N[C@@H](CCCCN)C(=O)N[C@@H](CC(C)C)C(=O)N[C@@H](CO)C(=O)N[C@@H](CCC(N)=O)C(=O)N[C@@H](CCC(=O)O)C(=O)N[C@@H](Cc1ccc(O)cc1)C(=O)N[C@@H](CCC(=O)O)C(=O)N[C@@H](CO)C(=O)N[C@H](C(N)=O)[C@@H](C)CC)C(=O)O)	significant effect of promoting axonal growth	no significant difference
